Experimental data as given in patent publication US20160060687A1, “METHODS AND COMPOSITIONS TO IDENTIFY, QUANTIFY, AND CHARACTERIZE TARGET ANALYTES AND BINDING MOIETIES” (CDI Laboratories, Inc., priority 2014, published 2016).
Entries after “also recorded” stand apart in the source; their conditions may differ.

Test system: MPG2
Assay: Protein-DNA DAPPL binding assay on a protein microarray of two human TF proteins and BSA, ligation products detected by PCR
Details: array of two human TF proteins and BSA; Sanger sequencing, six of six clones as expected
Excerpt: A DAPPL approach was applied to establish a comprehensive screen for protein-DNA interactions. As illustrated in FIG. 19A and FIG. […] Meanwhile, a pool of DNA polynucleotides was synthesized that each contains eight random nucleotides with a CpG in the middle and two fixed sequences on both sides. After a double-stranded DNA pool was made with a Klenow reaction, bacterial enzyme SssI is used to methylate the CpG, followed by treatment with a T4 DNA polymerase to generate a 5′-overhang. This pool of 65,536 species was then incubated on the TF array, washed, and the captured DNA fragments were ligated to the address polynucleotides. In each ligated sequence, a mCpG containing 8-mer sequence is now connected to an address oligo representing the TF protein that has captured this 8-mer in the binding assay. Therefore, it is an “all-to-all” screening approach. […] The ligated products were then recovered from the slide and PCR-amplified. […] Bioinformatics analyses were performed to determine whether there was any enrichment of consensus motifs for each TF protein.
After cloning the PCR fragments, Sanger sequencing was performed to determine the PCR-amplified sequences. Six of six sequenced clones gave the expected sequences from the ligation on the array.

## M62: methylated DNA motif M62 (SEQ ID NO: 10) used as probe on the TF protein microarray (DNA ATATGCATCG; methylated DNA motif, methylated positions not given here)
  capture of the methylated DNA motif by the TF spot (recovery of ligation products by PCR): captures; also recorded: successfully recovered using a PCR reaction only from the expected TF spot
